Experimental data as given in ChEMBL document CHEMBL1201862, “PubChem BioAssay data set” (2004).
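Following 48 hours of exposure in 96-well plates, responses at five concentrations were used to interpolate endpoints linearly. The concentration for 50% growth inhibition is given as GI50.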 Calls of active or inactive are those of the source. No stated cut-off is given here; in the data, active = GI50 up to about 1.1 µM and inactive = higher.

How the values were obtained:
Assay in all cases: NCI tumour cell line growth inhibition, 48 h
A549 = system: A549
HOP-62 = system: HOP-62
HT-29 = system: HT-29
IGROV-1 = system: IGROV-1
KM12 = system: KM12
M14 = system: M14
NCI-H23 = system: NCI-H23
OVCAR-3 = system: OVCAR-3
RPMI-8226 = system: RPMI-8226
RXF 393 = system: RXF 393
SF-268 = system: SF-268
SK-MEL-28 = system: SK-MEL-28
SK-OV-3 = system: SK-OV-3
SN12C = system: SN12C
SR = system: SR
SW-620 = system: SW-620
U-251 = system: U-251
UACC-257 = system: UACC-257
PC-3 = system: PC-3

Row | Structure (SMILES) | GI50 (A549) | GI50 (HOP-62) | GI50 (HT-29) | GI50 (IGROV-1) | GI50 (KM12) | GI50 (M14) | GI50 (NCI-H23) | GI50 (OVCAR-3) | GI50 (RPMI-8226) | GI50 (RXF 393) | GI50 (SF-268) | GI50 (SK-MEL-28) | GI50 (SK-OV-3) | GI50 (SN12C) | GI50 (SR) | GI50 (SW-620) | GI50 (U-251) | GI50 (UACC-257) | GI50 (PC-3)
1 | Cc1ccc(Oc2ccc(C)cc2N)cc1 | > 100 µM (inactive) | > 100 µM (inactive) | 52.5 µM (inactive) | > 100 µM (inactive) | > 100 µM (inactive) | > 100 µM (inactive) | 94.4 µM (inactive) | 36 µM (inactive) | 97.9 µM (inactive) | 31.5 µM (inactive) | 97.7 µM (inactive) | > 100 µM (inactive) | > 100 µM (inactive) | 97.7 µM (inactive) | 57.9 µM (inactive) | > 100 µM (inactive) | 30.5 µM (inactive) | 80.9 µM (inactive) | 
2 | COC(=O)C(=O)C(C(C)=O)C(=O)NCc1ccccc1 (stereo not drawn) | > 100 µM (inactive) | > 100 µM (inactive) | > 100 µM (inactive) | > 100 µM (inactive) | > 100 µM (inactive) | > 100 µM (inactive) | > 100 µM (inactive) | > 100 µM (inactive) | > 100 µM (inactive) | > 100 µM (inactive) | > 100 µM (inactive) | > 100 µM (inactive) |  | > 100 µM (inactive) | > 100 µM (inactive) | 5.06 µM (inactive) | 82.2 µM (inactive) | > 100 µM (inactive) | 
3 | Cc1c(C(=O)/C=C/c2ccco2)[n+]([O-])c2ccccc2[n+]1[O-] | > 100 µM (inactive) |  | > 100 µM (inactive) | > 100 µM (inactive) | > 100 µM (inactive) | > 100 µM (inactive) | > 100 µM (inactive) | > 100 µM (inactive) | 41.8 µM (inactive) | > 100 µM (inactive) | > 100 µM (inactive) | > 100 µM (inactive) | > 100 µM (inactive) | > 100 µM (inactive) | 55.2 µM (inactive) | > 100 µM (inactive) |  | > 100 µM (inactive) | 
4 | CCCN1CC=CCC1 | > 100 µM (inactive) |  | > 100 µM (inactive) | > 100 µM (inactive) | > 100 µM (inactive) | > 100 µM (inactive) | > 100 µM (inactive) | > 100 µM (inactive) | > 100 µM (inactive) | > 100 µM (inactive) | > 100 µM (inactive) | > 100 µM (inactive) | > 100 µM (inactive) | > 100 µM (inactive) | > 100 µM (inactive) | > 100 µM (inactive) | > 100 µM (inactive) | > 100 µM (inactive) | 
5 | Oc1cc(-c2ccccn2)nc2cccc(F)c12 | > 100 µM (inactive) | > 100 µM (inactive) | > 100 µM (inactive) | > 100 µM (inactive) | > 100 µM (inactive) | > 100 µM (inactive) | > 100 µM (inactive) | > 100 µM (inactive) | > 100 µM (inactive) | > 100 µM (inactive) |  | 0.644 µM (active) | > 100 µM (inactive) | > 100 µM (inactive) | > 100 µM (inactive) | > 100 µM (inactive) |  | > 100 µM (inactive) | 
6 | COc1ccc2nc(-c3ccc(OCc4ccccc4)cc3)ccc2c1 | > 100 µM (inactive) | > 100 µM (inactive) | > 100 µM (inactive) | > 100 µM (inactive) | > 100 µM (inactive) | > 100 µM (inactive) | > 100 µM (inactive) | > 100 µM (inactive) | > 100 µM (inactive) | > 100 µM (inactive) | > 100 µM (inactive) | > 100 µM (inactive) | > 100 µM (inactive) | > 100 µM (inactive) | > 100 µM (inactive) | > 100 µM (inactive) |  | > 100 µM (inactive) | 
7 | O=C(Cc1ccccc1)N/N=C(\C1=Nc2ccc([N+](=O)[O-])cc2NC1O)C(O)c1ccc([N+](=O)[O-])cc1 (stereo not drawn) | > 100 µM (inactive) | > 100 µM (inactive) | > 100 µM (inactive) | > 100 µM (inactive) |  | 30.8 µM (inactive) | > 100 µM (inactive) | > 100 µM (inactive) | 44.4 µM (inactive) | > 100 µM (inactive) | > 100 µM (inactive) |  | > 100 µM (inactive) | > 100 µM (inactive) | > 100 µM (inactive) | 80 µM (inactive) | > 100 µM (inactive) | > 100 µM (inactive) | 
8 | COC(=O)CCC(NC(=S)N/N=C(\C)c1cnc2ccccc2n1)C(=O)OC (stereo not drawn) | 34.8 µM (inactive) | 45.7 µM (inactive) | 14.2 µM (inactive) | 35.4 µM (inactive) | 26 µM (inactive) | 30.8 µM (inactive) | 58.3 µM (inactive) | 42.8 µM (inactive) | 11.1 µM (inactive) | 30.2 µM (inactive) | 29.7 µM (inactive) | 40.9 µM (inactive) | 76.9 µM (inactive) | 60.1 µM (inactive) | 15.1 µM (inactive) | 20.8 µM (inactive) | 43.2 µM (inactive) | 49.5 µM (inactive) | 
9 | CCOP(=O)(OCC)C1(O)CC(n2cc(C)c(=O)[nH]c2=O)OC1CO (stereo not drawn) | > 100 µM (inactive) | > 100 µM (inactive) | > 100 µM (inactive) | > 100 µM (inactive) | > 100 µM (inactive) | > 100 µM (inactive) | > 100 µM (inactive) | > 100 µM (inactive) | > 100 µM (inactive) | > 100 µM (inactive) | > 100 µM (inactive) | > 100 µM (inactive) | > 100 µM (inactive) | > 100 µM (inactive) | > 100 µM (inactive) | > 100 µM (inactive) | > 100 µM (inactive) | > 100 µM (inactive) | > 100 µM (inactive)
10 | COc1ccc(/C=C\c2cc(OC)c3c(c2)OCO3)c(O)c1O | 9.04 µM (inactive) | 7.59 µM (inactive) | 20.7 µM (inactive) | 4.71 µM (inactive) | 5.62 µM (inactive) | 3.56 µM (inactive) | 4.98 µM (inactive) | 4.78 µM (inactive) | 2.56 µM (inactive) | 3.94 µM (inactive) | 4.47 µM (inactive) | 5.65 µM (inactive) | 18.6 µM (inactive) | 15 µM (inactive) | 3.78 µM (inactive) | 8.3 µM (inactive) | 6.05 µM (inactive) | 14.1 µM (inactive) | 
11 | COc1ccc2oc3c4c2c1CCC4CCC3=O (stereo not drawn) | > 100 µM (inactive) | > 100 µM (inactive) | > 100 µM (inactive) | > 100 µM (inactive) | > 100 µM (inactive) | > 100 µM (inactive) | > 100 µM (inactive) | > 100 µM (inactive) | > 100 µM (inactive) | 36.1 µM (inactive) | 85.9 µM (inactive) | > 100 µM (inactive) | > 100 µM (inactive) | > 100 µM (inactive) | > 100 µM (inactive) | > 100 µM (inactive) | > 100 µM (inactive) | 16.8 µM (inactive) | 
12 | CC1(C)C(OC(=O)c2ccccc2)C[C@]23CCC[C@](C)(C[C@@H](O)C12)C3 (stereo partly drawn) | 16.3 µM (inactive) | 24 µM (inactive) | 16.1 µM (inactive) | 20.2 µM (inactive) | 16.7 µM (inactive) | 19.9 µM (inactive) | 16.9 µM (inactive) | 30.6 µM (inactive) | 23.9 µM (inactive) |  | 24.1 µM (inactive) | 15.8 µM (inactive) | 85.7 µM (inactive) | 18.4 µM (inactive) | 9.91 µM (inactive) | 13.9 µM (inactive) | > 10 µM (inactive) | 20.4 µM (inactive) | 11.5 µM (inactive)
